Like-named read-outs stand apart in the source and are kept apart here.

Series [1] concerns the target T1, SAP (Homo sapiens, UniProt P02743).
T1 construct: homopentamer, can form decamer; calcium-dependent ligand site
The settings on record: neutral solutions in the presence of calcium ions; reference [44]; cited from earlier work.

Series [2] has as its target T2, SAP binding to AA type amyloid fibrils (Homo sapiens, UniProt P02743).
T2 construct: isolated at greater than 99% purity from pooled human ascites and pleural effusion fluids; from tissue; host or cells: SAP from pooled human ascites and pleural effusion fluids; fibrils from patients' organs such as spleen
As to the kind of experiment: Inhibition of SAP binding to amyloid fibrils (125I-SAP). The settings on record: concentrations above about 2 mM in the final incubation mixture. How it is done:
Amyloid fibrils are isolated from the organs, such as the spleen, obtained post mortem from patients with amyloidosis of AA or AL type, using the water extraction method of Pras et al. This method is modified in that the initial saline homogenizations are conducted using Tris buffered saline containing 10 mM EDTA to ensure complete dissociation of all endogenous SAP [56]. The fibril-rich water extract is mixed with Tris buffered saline containing calcium chloride to bring the final salt concentration to 138 m NaCl, 10 mM Tris, 2 mM CaCl2, pH 8.0, and this is then centrifuged at 1500 g for 5 minutes to sediment the fibrils. These are then resuspended in Tris saline calcium buffer, pH 8.0, at the same concentration as above (TC buffer), so as to provide a suitable suspension, for example, A280 =0.255, A320 =0.132, and this is stored at 4° C. […] Agents to be tested are dissolved at a concentration of about 10 mM in TC, or in 1:10 DMSO in water or TC. If they are active in inhibiting SAP binding they are tested at a range of lower concentrations to determine the minimal inhibitory dose.
For the assay itself 10 μl of labelled SAP is mixed with 50 μl of amyloid fibril suspension and 40 μl of the test substance and incubated, with mixing, for 60 minutes at room temperature. […] The fibrils are washed with TC containing 1% w/v BSA and the radioactive SAP bound is measured. […]

The subject of series [3] is Alzheimer's disease β-protein fibrils. As to the kind of experiment: Pronase digestion of Alzheimer's disease β-protein fibrils, SDS-PAGE. It is filed as biochemical. The settings on record: for Digestion of β-protein: SAP 10 μg/ml, pronase 1 μg/ml, 1 hour at 37° C. The procedure: Alzheimer's disease β-protein, prepared as a synthetic peptide containing residues 1-40 was obtained from California Peptide Research, and was dissolved in pure water at 4 mg/ml, that is 1 mM. Some was kept at 4° C. ("fresh") and some was aged by incubation at 37° C. for 7 days. It is known that fibrils form very slowly in the cold but that "ageing" is associated with marked amyloid fibril formation, and this was confirmed in the present case by Congo red staining and by direct electron microscopy.
(a) β-protein solutions obtained as described above were diluted to 0.2 mg/ml in TC immediately before use. Highly purified human SAP in solution in 138 mM NaCl, 10 mM Tris, pH 8.0 (TN) was diluted in TN to 0.1 mg/ml, 0.5 mg/ml and 2.5 mg/ml Pronase from S. griseus was obtained from Boehringer Mannheim and was freshly prepared at 0.04 and 0.004 mg/ml in TC just before use.
Aliquots, 50 μl, of aged or fresh β-protein were mixed with 20 μl volumes of TN alone or SAP at the different concentrations shown in FIG. 5 and with 5 μl of 10 mM CaCl2, and then incubated with shaking at 37° C. for 1 hour. TC alone or pronase in TC at 0.04 or 0.004 mg/ml were added in a volume of 25 μl and incubation continued for a further 1 hour at 37° C. Digestion was then stopped by addition of an equal volume of reducing SDS-PAGE sample buffer (20 mM Tris pH 8.0, 2 mM EDTA, 5% w/v SDS, 10% w/v 2-mercaptoethanol, 0.05% w/v bromophenol blue, 20% w/v glycerol) and boiling for 10 minutes. These samples were finally analysed in reduced SDS homogeneous 15% PAGE, stained with Brilliant blue R350. The proportion of the β-protein present in each track was estimated by scanning densitometry with reference to the no pronase control which was taken as 100%. The proportion digested was calculated by subtraction and plotted against the SAP concentration.
(d) Abrogation of protection by MOβDG: β-protein fibrils at 100 μg/ml were incubated for 1 hour at 37° C. with pronase at 1 μg/ml, in the presence or absence of SAP and with or without different concentrations of MOβDG. The extent of digestion of the β-protein was then estimated by SDS-PAGE analysis.

The test system of series [4] is amyloid fibrils of AA, AL and apoAI type. As to the kind of experiment: Proteinase digestion of ex vivo amyloid fibrils (AA, AL, apoAI) in vitro. The settings on record: for Effect on fibril digestion by proteinases: protein added to incubation mixtures, 37° C. It counts as biochemical, human.
The test system of a further series is AA amyloid fibrils. Put plainly: Trypsin or chymotrypsin digestion of AA amyloid fibrils, SDS-PAGE quantification of AA protein band. It counts as biochemical, human. The settings on record: 6 hours at 37° C. The procedure:
(b) AA amyloid fibrils obtained ex vivo were incubated for 6 hours at 37° C. with trypsin or chymotrypsin at a substrate:enzyme ratio of 10:1 in the presence or absence of SAP and with or without MOβDG, according to the general protocol given above. The incubation mixtures were then analysed by Coomassie blue stained SDS-PAGE with quantification of the AA protein band. Intensity of this band after incubation without trypsin was taken as 100%.

In series [5] the target is T1, SAP. Put plainly: Binding of DNA by SAP. The settings on record: unpublished observations. The source says:
SAP also binds polyanions such as heparan sulphate, dermatan sulphate and DNA [4] in the presence of calcium. […] There are several basic regions in SAP, for example Arg120, Arg77, His78, Lys79 and Arg57, which are on the same surface as the calcium and PE binding sites. It seems more likely that the phosphate backbone of DNA and the sulphated polysaccharides bind both at the calciums and at the basic sites, possibly on more than one subunit simultaneously. These extensive interactions probably account for the ability of SAP to displace from DNA the H1-type histones in chromatin [5]. The sequence differences in the basic regions and in the calcium binding region could explain the variable affinity for DNA shown by different pentraxins. Human CRP, for instance, only binds DNA at low, non-physiological ionic strength. […] Similar effects are observed for SAP binding to immobilised PE [unpublished observations]. As we can find no evidence for a second binding site for PE or MOβDG in the present experimental conditions, these effects must be mediated through inter-subunit interactions.

In series [6] the target is T1, SAP. Put plainly: Calcium-dependent aggregation of SAP in neutral solution. The settings on record: neutral solutions in the presence of calcium ions; unpublished observations. The source says: SAP rapidly aggregates in neutral solutions in the presence of calcium ions presumably due to intermolecular interactions involving the surface of the decamer with the exposed calcium binding site. […] Similarly they compete for the calcium site with Glu167 which is an important lattice contact in the pentamer crystals.

T1 sequence (P02743 20-223): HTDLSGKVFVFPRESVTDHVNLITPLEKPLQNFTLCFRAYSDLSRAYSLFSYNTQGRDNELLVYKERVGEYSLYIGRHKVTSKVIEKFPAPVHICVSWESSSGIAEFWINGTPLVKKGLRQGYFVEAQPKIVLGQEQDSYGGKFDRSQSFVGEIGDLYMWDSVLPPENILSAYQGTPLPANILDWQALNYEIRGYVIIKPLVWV
T2 sequence (P02743 20-223): as above

`CO[C@@H]1O[C@@H]2CO[C@@](C)(C(=O)O)O[C@@H]2[C@H](O)[C@H]1O` [MOβDG, methyl 4,6-O-(1-carboxyethylidene)-β-D-galactopyranoside]: the “Inhibition of SAP aggregation” value on SAP [1] was “can be inhibited”. Moreover, the “Effect on SAP binding to amyloid fibrils” value in series [2] was “reduces binding to background levels”. The “Digestion of β-protein” value in series [3] (MOβDG 1.3 mM) is given as 75%; in series [3] (MOβDG 6.7 mM), 85%; in series [3] (MOβDG 33.3 mM), 90%. The “Protection by SAP in the presence of MOβDG” value in series [3] (β-protein amyloid fibrils with SAP) is reported as “completely abrogated”. Also, the “Protective effect of SAP when MOβDG was included” value in series [4] (MOβDG included in the incubation mixtures with SAP) is reported as “completely abrogated”. Further, the “% AA protein remaining” value with AA amyloid fibrils (Chymotrypsin, SAP 50 μg/ml plus MOβDG 1 mM) was found to be 10%; with AA amyloid fibrils (Trypsin, SAP 50 μg/ml plus MOβDG 1 mM), 5%. Besides, on SAP [5], the “Effect on binding of DNA by SAP” value is “enhance the binding of DNA by SAP and compete with the interaction at high concentration”.
Consider `NCCOP(=O)(O)O` [PE, phosphoethanolamine], for which, on SAP [5], the “Effect on binding of DNA by SAP” value was “enhance the binding of DNA by SAP and compete with the interaction at high concentration”. Also, at SAP [6], the “Inhibition of SAP aggregation” value is “can be inhibited”.
In the case of “CRP: C-reactive protein, control protein that does not bind to amyloid fibrils”, in series [4], the “Effect on fibril digestion by proteinases” value is “had no effect on their digestion”.
As to “SAP: Serum amyloid P component, a normal human plasma protein; highly purified human SAP”, the “Digestion of β-protein” value in series [3] (MOβDG 0 mM) is on record as 60%. In addition, the “Protection of β-protein amyloid fibrils from proteolysis” value in series [3] (fibrils produced in vitro from synthetic β-protein) is given as “protected the β-protein amyloid fibrils from proteolysis”. Besides, the “Effect on fibril digestion by proteinases” value in series [4] is “greatly reduced fibril digestion”. The “% AA protein remaining” value with AA amyloid fibrils (Chymotrypsin, SAP 10 μg/ml, no MOβDG) stood at 20%; in the series on AA amyloid fibrils (Chymotrypsin, SAP 50 μg/ml, no MOβDG), 60%; with AA amyloid fibrils (Trypsin, SAP 10 μg/ml, no MOβDG), 20%; in the series on AA amyloid fibrils (Trypsin, SAP 50 μg/ml, no MOβDG) it was 50%.

The record behind these values is patent publication US6126918A, “Screening assays to identify therapeutic agents for amyloidosis” (Imperial College Innovations Limited, priority 1993, dated 2000).
